Patent EP4653445A1, “CDK INHIBITOR AND CRYSTAL FORM OF PHARMACEUTICALLY ACCEPTABLE SALT THEREOF, AND USE THEREOF” (CSPC Zhongqi Pharmaceutical Technology (Shijiazhuang) Co., …, priority 2023, dated 2024)

Columns and labels:
[1] = Solubility comparison in water, SGF, FaSSIF and FeSSIF (HPLC of filtrates, XRPD of filter cakes); settings: time not stated
MDA-MB-231 = test: In vitro tumor cell proliferation inhibition test (CTG); assay type: cell-based; settings: 4-7 days
Description: (§1) The cells were subcultured regularly, and those in the logarithmic growth phase were taken for plating. The cells were stained with trypan blue and the viable cells were counted. The cell concentration was adjusted to an appropriate level. The cell suspension was added to each well of the culture plate, and the culture medium without cells was added to the blank control wells. […] The compound working solution was added to the cell culture plate, and DMSO at the same final concentration was added to the solvent control wells. Then the plate was returned to the incubator for 4-7 days of culture. The cell viability was detected according to the instructions of the Promega CellTiter-Glo (CTG) Luminescent Cell Viability Assay Kit (Promega-G7573). […] The IC50 was calculated using the following equation: [formula] • X: log(concentration) • Y: response value, negatively correlated with X • HillSlope: slope factor • Note: […]

MCF-7 = test: as above; assay type: cell-based; settings: 4-7 days
Description: as §1

xMCF-7/Palbo-R = test: as above; assay type: cell-based; settings: Breast cancer (acquired resistance to Palbociclib), 4-7 days
Description: as §1

T47D = test: as above; assay type: cell-based; settings: HR+/HER2- Breast cancer, 4-7 days
Description: as §1

MDA-MB-468 (Rb-) = test: as above; assay type: cell-based; settings: 4-7 days; for Maximum Inhibition Rate: Breast cancer (primary resistance to Palbociclib)
Description: as §1

HCC1187 = test: as above; assay type: cell-based; settings: 4-7 days
Description: as §1

MDA-MB-453 = test: as above; assay type: cell-based; settings: 4-7 days; for Maximum Inhibition Rate: HR-/HER2+ Breast cancer
Description: as §1

MV-4-11 = test: as above; assay type: cell-based, Human; settings: 4-7 days
Description: (§2) The tumor cell strains were cultured in an incubator at 37 °C with 5% CO2. The cells were subcultured regularly, and those in the logarithmic growth phase were taken for plating. The cells were stained with trypan blue and the viable cells were counted. The cell concentration was adjusted to an appropriate level. The cell suspension was added to each well of the culture plate, and the culture medium without cells was added to the blank control wells. The culture plate was incubated overnight in an incubator at 37 °C, 5% CO2, and 100% RH. […] The compound working solution was added to the cell culture plate, and DMSO at the same final concentration was added to the solvent control wells. Then the plate was returned to the incubator for 4-7 days of culture. The cell viability was detected according to the instructions of the Promega CellTiter-Glo (CTG) Luminescent Cell Viability Assay Kit (Promega-G7573).
(§3) The inhibition rates of the compound at different concentrations were calculated in Excel, then the inhibition curve was plotted using GraphPad Prism software and relevant parameters, including the minimum inhibition rate, maximum inhibition rate, and IC50 were calculated.

NCI-H211 = test: as above; assay type: cell-based, Human; settings: 4-7 days
Description: as §2, §3

HT-29 = test: as above; assay type: cell-based, Human; settings: 4-7 days
Description: as §2, §3

COLO 205 = test: as above; assay type: cell-based, Human; settings: 4-7 days
Description: as §2, §3

MOLM-13 = test: as above; assay type: cell-based, Human; settings: 4-7 days
Description: as §2, §3

HCT 116 = test: as above; assay type: cell-based, Human; settings: 4-7 days
Description: as §2, §3

Huh-7 = test: as above; assay type: cell-based, Human; settings: 4-7 days
Description: as §2, §3

SK-MEL-5 = test: as above; assay type: cell-based, Human; settings: 4-7 days
Description: as §2, §3

Hep3B (Rb-) = test: as above; assay type: cell-based, Human; settings: Liver cancer, 4-7 days
Description: as §2, §3

JHH-7 = test: as above; assay type: cell-based, Human; settings: 4-7 days
Description: as §2, §3

A2780 = test: as above; assay type: cell-based, Human; settings: 4-7 days
Description: as §2, §3

CC(=O)c1c(C)c2cnc(Nc3ccc4c(c3)OC[C@@H]3CN(C5CCN(C)CC5)CCN43)nc2n(C2CCCC2)c1=O [Compound A]
solubility in SGF ([1]; SGF, listed as free base): greater than 5 mg/mL | solubility in water ([1]; water): approximately 0.003 mg/mL | IC50 (MDA-MB-231; Homo sapiens, MDA-MB-231, Triple-negative breast cancer): 3450 nM | Maximum Inhibition Rate (MDA-MB-231; Triple-negative breast cancer): 99.567% | Maximum Inhibition Rate (MCF-7; HR+/HER2- Breast cancer): 99.937% | IC50 (MCF-7; Homo sapiens, MCF7, HR+/HER2- Breast cancer): 76 nM | IC50 (xMCF-7/Palbo-R): 3090 nM | Maximum Inhibition Rate (xMCF-7/Palbo-R): 99.677% | Maximum Inhibition Rate (T47D): 99.910% | IC50 (T47D; Homo sapiens, T47D): 1500 nM | Maximum Inhibition Rate (MDA-MB-468 (Rb-)): 99.693% | Maximum Inhibition Rate (MDA-MB-468 (Rb-); listed as compound A): exceeding 99% | IC50 (MDA-MB-468 (Rb-); Homo sapiens, MDA-MB-468, Breast cancer (primary resistance to Palbociclib)): 440 nM | IC50 (HCC1187; Homo sapiens, HCC1187, Triple-negative breast cancer): 1110 nM | Maximum Inhibition Rate (HCC1187; Triple-negative breast cancer): 99.777% | Maximum Inhibition Rate (MDA-MB-453): 102.600% | Maximum Inhibition Rate (MDA-MB-453; listed as compound A): ~100% | IC50 (MDA-MB-453; Homo sapiens, MDA-MB-453, HR-/HER2+ Breast cancer): 384 nM | Maximum Inhibition Rate (MV-4-11; Hematological tumor): 99.897% | IC50 (MV-4-11; Homo sapiens, MV4-11, Hematological tumor): 102 nM | IC50 (NCI-H211; Homo sapiens, NCI-H211, Small cell lung cancer): 201 nM | Maximum Inhibition Rate (NCI-H211; Small cell lung cancer): 99.883% | Maximum Inhibition Rate (HT-29; Colorectal cancer): 95.622% | IC50 (HT-29; Homo sapiens, HT-29, Colorectal cancer): 113 nM | Maximum Inhibition Rate (COLO 205; Colorectal cancer): 99.093% | IC50 (COLO 205; Homo sapiens, COLO 205, Colorectal cancer): 734 nM | Maximum Inhibition Rate (MOLM-13; Hematological tumor): 99.993% | IC50 (MOLM-13; Homo sapiens, MOLM-13, Hematological tumor): 370 nM | Maximum Inhibition Rate (HCT 116; Colorectal cancer): 99.244% | IC50 (HCT 116; Homo sapiens, HCT-116, Colorectal cancer): 134 nM | IC50 (Huh-7; Homo sapiens, Huh-7, Liver cancer): 107 nM | Maximum Inhibition Rate (Huh-7; Liver cancer): 99.447% | IC50 (SK-MEL-5; Homo sapiens, SK-MEL-5, Melanoma): 9500 nM | Maximum Inhibition Rate (SK-MEL-5; Melanoma): 99.213% | IC50 (Hep3B (Rb-); Homo sapiens, Hep3B): 3330 nM | Maximum Inhibition Rate (Hep3B (Rb-)): 99.055% | Maximum Inhibition Rate (Hep3B (Rb-); listed as compound A): exceeding 99% | IC50 (JHH-7; Homo sapiens, JHH7, Liver cancer): 107 nM | Maximum Inhibition Rate (JHH-7; Liver cancer): 99.394% | IC50 (A2780; Homo sapiens, A2780, Ovarian cancer): 438 nM | Maximum Inhibition Rate (A2780; Ovarian cancer): 98.887%
